The values below come from PubChem BioAssay (NCI).

Common to all, as to test: inhibition of tumour cell growth, NCI panel, 48 h
The subject of experiment [1] is BT-549 breast.
Experiment [2] concerns CCRF-CEM leukemia.
In experiment [3] the test system is HL-60(TB) leukemia.
Experiment [4] deals with HS 578T breast.
Experiment [5] concerns MDA-MB-435.
Experiment [6] deals with NCI-H23 lung.
The test system of experiment [7] is NCI-H460 lung.
Experiment [8] has as its system NCI/ADR-RES ovarian.
For experiment [9], the system named is SR leukemia.
The subject of experiment [10] is UACC-257 melanoma.

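1) Cells in 96-well plates. 2) Compound, 48 h, 5 concentrations. 3) Linear interpolation between surrounding doses. 4) Unreached endpoint = highest concentration. GI50 is the concentration that inhibits growth by half. TGI is the concentration that stops growth completely.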

Consider `C[C@@H]1CC[C@H]2[C@@H](C)C(O)O[C@@H]3O[C@]4(C)CC[C@@H]1[C@]32OO4` (stereo not given in full), for which the GI50 is 0.721 µM in experiment [1]; 0.568 µM in experiment [2]; 0.176 µM in [3]; 1.33 µM in experiment [4]; 0.361 µM in [5]; 0.442 µM in [6]. Moreover, the GI50 is 1.33 µM in experiment [7], 0.581 µM in [8], 0.199 µM in experiment [9] and 0.748 µM in experiment [10]. Further, the TGI is 45.4 µM in [1]; 35 µM in experiment [2]; 0.517 µM in [3]; 42.2 µM in [4]; 10.8 µM in [5]; 10.7 µM in experiment [6]. Moreover, the TGI in experiment [7] is 15 µM; in experiment [8], 12 µM; in [9], 0.898 µM; in experiment [10] it was more than 100 µM.
As to `N#C/C(=C\c1ccc(O)c(O)c1)C(=O)NCc1ccc(C(F)(F)F)cc1`, the GI50 was 10.6 µM in experiment [1]; 2.14 µM in experiment [2]; 11.6 µM in experiment [3]; 12.6 µM in [4]; 5.69 µM in [5]; 4.54 µM in [6]. Also, the GI50 was 6.87 µM in [7], 5.19 µM in [8], 2.47 µM in experiment [9] and 17.9 µM in experiment [10]. The TGI in experiment [1] is more than 53.7 µM; in experiment [2], 14.7 µM; in experiment [3], more than 66.5 µM; in experiment [4], 46.9 µM; in experiment [5], 29.4 µM; in experiment [6], 18.5 µM. Also, the TGI is more than 43 µM in experiment [7], 24.7 µM in experiment [8], 6 µM in [9] and more than 68.6 µM in experiment [10].
Turning to `CCOC(=O)/C(=C/CC/C(C)=C/CC/C(C)=C/CCc1ccoc1)CC(=O)N1CCCCC1`, the GI50 in [1] is 4.03 µM; in experiment [2] it was 3.56 µM; in [3] it was 2.99 µM; in experiment [4] it was 5.07 µM; in [5] it was 3.05 µM; in [6] it was 3.12 µM. For the same compound, the GI50 in experiment [7] was 1.82 µM; in experiment [8], 3.88 µM; in [9], 3.11 µM; in experiment [10], 2.29 µM. In addition, the TGI was 17.2 µM in experiment [1]; 22.5 µM in [2]; 7.4 µM in experiment [3]; 35.2 µM in experiment [4]; 10.9 µM in experiment [5]; 15.1 µM in experiment [6]. The TGI in [7] stood at 3.7 µM; in experiment [8], 23.7 µM; in [9], 16 µM; in experiment [10], 7.41 µM.
